In patent publication US12428394B2, “2,4-disubstituted pyrimidine derivative, preparation method therefor and use thereof” (CHENGDU ZENITAR BIOMEDICAL TECHNOLOGY CO., LTD., priority 2019, dated 2025):

Tests used:
SET-2 cells (JAK2 V617F) = experiment: Inhibition of cell proliferation by MTT experiment, SET-2; format: cell-based; settings: Homo sapiens, SET-2; MTT, 72 h; read-out: IC50 value on cell proliferation inhibition, SET-2 (V617F)
Method in brief: (§1)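 MTT assay in MV4-11, MOLM-13 (FLT3-ITD) and SET-2 (JAK2 V617F) cells at 10,000–15,000 cells/well in IMDM with 10% FBS. Cells are exposed to compound for 72 h at 37 °C, then to MTT for 1–3 h. IC50 is fitted from inhibition rates across concentrations.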

JAK2 = molecular target: T1, JAK2 (Homo sapiens, UniProt O60674); experiment: In vitro kinase activity experiment, JAK2; format: biochemical; settings: for Kinase activity @ 500 nM (%) JAK2: inhibition rate of enzyme at 500 nM, measured by Eurofins
T1 construct: purchased Eurofins
Method in brief: (§2)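 Radiometric filter-binding kinase assay: each kinase with its substrate, γ33P-ATP, 10 mM magnesium acetate and graded compound in 8 mM MOPS pH 7.0, 0.2 mM EDTA, 10 mM MnCl2. MgATP-started, 40 min at room temperature, stopped with 3% phosphate. Spotted on Filtermat A, washed, scintillation-counted.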

[1] = tested on: MV4-11 cells (FLT3-ITD+/+); experiment: Inhibition of cell proliferation by MTT experiment, MV4-11; format: cell-based, human; settings: Homo sapiens, MV4-11; MTT, 72 h; read-out: IC50 value on cell proliferation inhibition, MV4-11 FLT3-ITD+/+
Method in brief: as §1

FLT3 = molecular target: T2, FLT3 (Homo sapiens, UniProt P36888); experiment: In vitro kinase activity experiment, FLT3; format: biochemical; settings: for inhibition at 0.5 µM: 40 min, inhibition rate of enzyme at 500 nM, measured by Eurofins, read-out: Kinase activity @ 500 nM (%) FLT3
T2 construct: purchased Eurofins
T2 sequence (P36888 27-993): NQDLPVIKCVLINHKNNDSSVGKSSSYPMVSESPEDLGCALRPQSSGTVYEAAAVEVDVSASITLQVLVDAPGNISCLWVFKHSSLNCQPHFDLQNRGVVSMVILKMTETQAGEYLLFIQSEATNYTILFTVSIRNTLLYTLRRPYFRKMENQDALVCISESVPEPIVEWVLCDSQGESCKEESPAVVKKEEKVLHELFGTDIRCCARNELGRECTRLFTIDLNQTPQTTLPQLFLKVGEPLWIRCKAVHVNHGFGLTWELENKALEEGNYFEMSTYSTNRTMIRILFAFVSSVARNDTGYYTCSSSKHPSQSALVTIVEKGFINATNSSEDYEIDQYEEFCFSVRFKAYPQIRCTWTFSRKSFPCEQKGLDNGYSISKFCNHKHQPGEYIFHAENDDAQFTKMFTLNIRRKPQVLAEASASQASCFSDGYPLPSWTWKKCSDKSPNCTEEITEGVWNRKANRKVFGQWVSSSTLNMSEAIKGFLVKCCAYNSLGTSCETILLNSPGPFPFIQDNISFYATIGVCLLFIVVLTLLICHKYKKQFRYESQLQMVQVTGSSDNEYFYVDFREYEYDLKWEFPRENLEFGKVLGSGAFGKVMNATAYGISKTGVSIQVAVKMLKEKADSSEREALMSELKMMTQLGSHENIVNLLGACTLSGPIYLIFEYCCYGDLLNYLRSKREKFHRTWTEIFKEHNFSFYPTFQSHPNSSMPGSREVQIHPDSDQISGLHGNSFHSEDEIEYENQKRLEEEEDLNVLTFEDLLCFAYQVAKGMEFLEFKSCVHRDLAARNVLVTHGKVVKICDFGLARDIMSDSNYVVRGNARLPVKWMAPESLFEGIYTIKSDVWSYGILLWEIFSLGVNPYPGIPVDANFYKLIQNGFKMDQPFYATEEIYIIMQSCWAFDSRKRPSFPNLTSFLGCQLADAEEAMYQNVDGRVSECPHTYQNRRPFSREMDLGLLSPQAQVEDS
Method in brief: as §2

[2] = tested on: MOLM-13 cells (FLT3-ITD-/+); experiment: Inhibition of cell proliferation by MTT experiment, MOLM-13; format: cell-based, human; settings: Homo sapiens, MOLM-13; MTT, 72 h; read-out: IC50 value on cell proliferation inhibition, MOLM-13 FLT3-ITD-/+
Method in brief: as §1

JAK1 = molecular target: T3, JAK1 (Homo sapiens, UniProt P23458); experiment: In vitro kinase activity experiment, JAK1; format: biochemical
T3 construct: purchased Eurofins
Protocol: (§3) Buffer solution ([…], pH 7.0, 0.2 mm EDTA, 10 mM mncl2), kinase to be tested, substrate of kinase to be tested, 10 mM magnesium acetate and γ33P-ATP solution, and compounds with different concentrations were added to a reaction tube in turn, then MgATP was added to initiate the enzyme reaction process, and incubated at room temperature for 40 min. Then, the reaction was terminated with 5 μl of […], and 10 μl of the reaction solution was titrated onto the Filtermat A membrane, washed with 75 mM phosphate solution for three times, each time for 5 min., and then washed with methanol once. Finally, the Filtermat A membrane was dried and the scintillation count was carried out.

JAK3 = molecular target: T4, JAK3 (Homo sapiens, UniProt P52333); experiment: In vitro kinase activity experiment, JAK3; format: biochemical
T4 construct: purchased Eurofins
T4 sequence (P52333 1-1124): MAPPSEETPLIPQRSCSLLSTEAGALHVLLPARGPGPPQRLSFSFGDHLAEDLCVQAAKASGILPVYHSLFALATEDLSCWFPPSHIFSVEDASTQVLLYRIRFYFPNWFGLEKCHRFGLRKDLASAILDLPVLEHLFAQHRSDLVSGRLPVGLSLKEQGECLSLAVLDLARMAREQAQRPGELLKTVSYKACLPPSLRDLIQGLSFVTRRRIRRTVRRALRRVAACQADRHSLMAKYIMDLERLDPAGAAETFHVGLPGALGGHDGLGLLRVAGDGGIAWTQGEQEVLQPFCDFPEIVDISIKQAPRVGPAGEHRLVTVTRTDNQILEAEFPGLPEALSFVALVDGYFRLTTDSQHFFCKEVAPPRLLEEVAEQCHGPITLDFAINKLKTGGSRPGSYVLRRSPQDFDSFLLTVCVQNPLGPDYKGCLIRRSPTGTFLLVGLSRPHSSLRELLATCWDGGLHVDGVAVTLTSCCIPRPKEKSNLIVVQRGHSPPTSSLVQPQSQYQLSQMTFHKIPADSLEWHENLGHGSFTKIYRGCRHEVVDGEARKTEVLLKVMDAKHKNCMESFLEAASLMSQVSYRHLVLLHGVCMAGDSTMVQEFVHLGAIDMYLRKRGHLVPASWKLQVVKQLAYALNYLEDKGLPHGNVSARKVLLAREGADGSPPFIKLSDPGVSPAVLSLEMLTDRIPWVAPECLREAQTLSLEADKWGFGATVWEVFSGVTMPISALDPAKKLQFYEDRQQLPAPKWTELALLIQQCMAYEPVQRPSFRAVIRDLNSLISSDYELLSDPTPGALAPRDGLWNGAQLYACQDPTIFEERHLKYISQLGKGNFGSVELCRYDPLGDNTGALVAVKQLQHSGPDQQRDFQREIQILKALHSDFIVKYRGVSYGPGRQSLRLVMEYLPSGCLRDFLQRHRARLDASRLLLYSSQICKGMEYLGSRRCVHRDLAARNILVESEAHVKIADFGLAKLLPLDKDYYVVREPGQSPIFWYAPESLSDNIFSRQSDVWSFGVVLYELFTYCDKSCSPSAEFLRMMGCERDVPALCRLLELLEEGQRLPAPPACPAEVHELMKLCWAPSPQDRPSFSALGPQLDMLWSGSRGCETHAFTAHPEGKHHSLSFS
Protocol: as §3

T3 sequence (P23458 whole entry): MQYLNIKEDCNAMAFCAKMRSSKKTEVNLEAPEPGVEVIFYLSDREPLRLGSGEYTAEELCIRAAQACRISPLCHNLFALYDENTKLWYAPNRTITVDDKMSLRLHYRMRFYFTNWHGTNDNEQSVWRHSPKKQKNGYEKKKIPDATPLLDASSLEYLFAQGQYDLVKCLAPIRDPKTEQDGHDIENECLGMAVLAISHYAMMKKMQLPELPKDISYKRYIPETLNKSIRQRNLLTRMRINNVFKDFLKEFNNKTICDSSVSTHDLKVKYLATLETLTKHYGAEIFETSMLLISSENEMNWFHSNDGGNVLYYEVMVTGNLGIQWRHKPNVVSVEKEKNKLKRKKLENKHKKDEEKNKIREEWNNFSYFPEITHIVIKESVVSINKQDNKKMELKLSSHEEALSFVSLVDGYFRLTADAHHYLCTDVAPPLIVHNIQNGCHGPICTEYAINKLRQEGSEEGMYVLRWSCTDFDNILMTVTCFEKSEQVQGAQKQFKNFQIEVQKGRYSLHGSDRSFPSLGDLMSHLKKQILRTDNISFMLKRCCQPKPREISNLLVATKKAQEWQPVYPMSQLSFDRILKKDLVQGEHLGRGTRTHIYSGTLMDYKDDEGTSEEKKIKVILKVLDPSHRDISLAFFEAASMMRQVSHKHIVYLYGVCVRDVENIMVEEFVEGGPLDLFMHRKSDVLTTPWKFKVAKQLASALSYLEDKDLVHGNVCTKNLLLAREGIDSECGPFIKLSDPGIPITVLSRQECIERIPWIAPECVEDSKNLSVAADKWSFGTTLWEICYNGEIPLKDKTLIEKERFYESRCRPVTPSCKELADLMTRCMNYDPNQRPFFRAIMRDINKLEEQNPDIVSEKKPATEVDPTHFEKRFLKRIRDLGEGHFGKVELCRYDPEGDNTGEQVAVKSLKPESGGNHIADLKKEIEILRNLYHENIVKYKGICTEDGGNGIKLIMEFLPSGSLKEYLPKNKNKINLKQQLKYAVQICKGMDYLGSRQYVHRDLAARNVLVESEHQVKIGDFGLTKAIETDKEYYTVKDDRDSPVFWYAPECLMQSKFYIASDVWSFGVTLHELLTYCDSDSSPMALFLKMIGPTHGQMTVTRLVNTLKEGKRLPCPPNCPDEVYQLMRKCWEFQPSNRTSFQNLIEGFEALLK
T1 sequence (O60674 whole entry): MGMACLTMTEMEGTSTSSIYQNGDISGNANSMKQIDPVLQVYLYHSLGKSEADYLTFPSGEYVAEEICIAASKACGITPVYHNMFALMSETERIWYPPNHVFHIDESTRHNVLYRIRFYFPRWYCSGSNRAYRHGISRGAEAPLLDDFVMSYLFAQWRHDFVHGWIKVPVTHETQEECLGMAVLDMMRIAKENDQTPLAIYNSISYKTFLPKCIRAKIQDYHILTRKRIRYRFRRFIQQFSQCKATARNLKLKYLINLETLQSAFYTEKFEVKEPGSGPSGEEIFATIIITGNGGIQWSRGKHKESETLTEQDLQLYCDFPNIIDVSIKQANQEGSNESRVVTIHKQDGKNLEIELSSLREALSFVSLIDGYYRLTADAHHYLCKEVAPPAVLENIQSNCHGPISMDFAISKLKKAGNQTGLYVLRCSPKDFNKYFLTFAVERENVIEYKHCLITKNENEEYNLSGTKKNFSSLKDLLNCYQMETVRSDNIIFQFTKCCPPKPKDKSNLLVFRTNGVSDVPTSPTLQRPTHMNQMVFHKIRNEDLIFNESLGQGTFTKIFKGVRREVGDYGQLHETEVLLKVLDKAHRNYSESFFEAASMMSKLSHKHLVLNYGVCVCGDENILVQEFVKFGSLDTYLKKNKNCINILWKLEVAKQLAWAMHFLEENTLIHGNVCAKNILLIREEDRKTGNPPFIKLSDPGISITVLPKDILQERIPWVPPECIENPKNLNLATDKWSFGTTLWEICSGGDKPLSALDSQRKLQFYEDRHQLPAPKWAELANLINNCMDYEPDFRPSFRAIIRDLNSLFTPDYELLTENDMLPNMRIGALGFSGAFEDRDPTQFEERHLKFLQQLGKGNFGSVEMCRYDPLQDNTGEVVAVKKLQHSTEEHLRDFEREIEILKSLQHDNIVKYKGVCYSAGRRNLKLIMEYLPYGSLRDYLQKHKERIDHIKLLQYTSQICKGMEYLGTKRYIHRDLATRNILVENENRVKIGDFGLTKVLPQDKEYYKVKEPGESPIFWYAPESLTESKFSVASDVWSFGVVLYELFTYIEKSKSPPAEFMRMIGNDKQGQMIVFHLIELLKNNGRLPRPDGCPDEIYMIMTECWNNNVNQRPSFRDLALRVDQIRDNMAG

| Compound | IC50 (SET-2 cells (JAK2 V617F)) | IC50 (JAK2) | Kinase activity @ 500 nM (%) JAK2 (JAK2) | IC50 [1] | IC50 (FLT3) | inhibition at 0.5 µM (FLT3) | IC50 [2] | IC50 (JAK1) | IC50 (JAK3) |
| --- | --- | --- | --- | --- | --- | --- | --- | --- | --- |
| Cc1cnc(Nc2ccc(N3CCC(N(C)C)CC3)c(F)c2)nc1-c1cnn(C(C)C)c1 [CLJ-38, 5-methyl-N-(3-fluoro-4-(4-dimethylaminopiperidine-1-yl)phenyl)-4-(1-isopropyl-1H-pyrazole-4-yl) pyrimidine-2-amine] | 0.1 to 1 µM | 0.002 µM | 93% | 0.01 to 0.1 µM | 0.009 µM | 72% | 0.1 to 1 µM | 0.058 µM | – |
| Cc1cnc(Nc2ccc(N3CCC(N(C)CC4CC4)CC3)c(F)c2)nc1-c1cnn(C(C)C)c1 [CLJ-52, 5-methyl-N-(3-fluoro-4-(4-N-cyclopropanemethyl-4-N-methylaminopiperidine-1-yl)phenyl)-4-(1-isopropyl-1H-pyrazole-4-yl) pyrimidine-2-amine] | 0.1 to 1 µM | 0.001 µM | 106% | 0.001 to 0.01 µM | 0.009 µM | 102% | 0.01 to 0.1 µM | 0.047 µM | 0.023 µM |
| Cc1cnc(Nc2ccc(N3CCC(N(C)CCO)CC3)c(F)c2)nc1-c1cn(C(C)C)nc1S(C)(=O)=O [CLJ-91, 5-methyl-N-(3-fluoro-4-(4-N-hydroxyethyl-4-N-methylaminopiperidine-1-yl)phenyl)-4-(1-isopropyl-3-methylsulfonyl-1H-pyrazole-4-yl) pyrimidine-2-amine] | 0.1 to 1 µM | 0.003 µM | 100% | 0.01 to 0.1 µM | 0.011 µM | 97% | 0.01 to 0.1 µM | 0.121 µM | 0.103 µM |
| Cc1cnc(Nc2ccc(NC(=O)[C@H]3CCCN3)c(F)c2)nc1-c1cnn(C(C)C)c1 [CLJ-93, (R)-2-((2-fluoro-4-((4-(1-isopropyl-1H-pyrazole-4-yl)-5-methylpyrimidine-2-yl)amino)phenyl)carbamoyl) pyrrolidine] | 0.1 to 1 µM | – | 100% | 0.01 to 0.1 µM | – | 97% | 0.01 to 0.1 µM | – | – |
| Cc1cnc(Nc2ccc(NS(=O)(=O)c3ccc(C(F)(F)F)cc3)c(F)c2)nc1-c1cnn(C(C)C)c1 [CLJ-94, N-(2-fluoro-4-((4-(1-isopropyl-1H-pyrazole-4-yl)-5-methylpyrimidine-2-yl)amino)phenyl)-4-(trifluoromethyl) benzenesulfonamide] | 0.1 to 1 µM | 0.002 µM | 99% | 0.01 to 0.1 µM | 0.015 µM | 94% | 0.01 to 0.1 µM | 0.076 µM | 0.039 µM |
| Cc1cnc(Nc2ccc(NS(=O)(=O)c3ccc4c(c3)CC(=O)N4)c(F)c2)nc1-c1cnn(C(C)C)c1 [CLJ-95, N-(2-fluoro-4-((4-(1-isopropyl-1H-pyrazole-4-yl)-5-methylpyrimidine-2-yl)amino)phenyl)-2-oxoindoline-5-sulfonamide] | 0.1 to 1 µM | – | 66% | 0.1 to 1 µM | – | 67% | 0.1 to 1 µM | – | – |
| Cc1cnc(Nc2ccc(NC(=O)[C@H]3CCCN3CC3CC3)c(F)c2)nc1-c1cnn(C(C)C)c1 [CLJ-96, (R)-1-(cyclopropylmethyl)-N-(2-fluoro-4-((4-(1-isopropyl-1H-pyrazole-4-yl)-5-methylpyrimidine-2-yl)amino)phenyl) pyrrolidine-2-carboxamide] | 0.1 to 1 µM | – | 73% | 0.1 to 1 µM | – | 56% | 0.1 to 1 µM | – | – |
| Cc1cnc(Nc2ccc(NC(=O)[C@H]3C[C@H](F)CN3)c(F)c2)nc1-c1cnn(C(C)C)c1 [CLJ-97, (2R,4S)-4-fluoro-N-(2-fluoro-4-((4-(1-isopropyl-1H-pyrazole-4-yl)-5-methylpyrimidine-2-yl)amino)phenyl) pyrrolidine-2-carboxamide] | 0.1 to 1 µM | – | 99% | 0.01 to 0.1 µM | – | 101% | 0.01 to 0.1 µM | – | – |
| Cc1cnc(Nc2ccc(NC(=O)CN3CCS(=O)(=O)CC3)c(F)c2)nc1-c1cnn(C(C)C)c1 [CLJ-98, 2-(1,1-dioxthiomorpholine)-N-(2-fluoro-4-((4-(1-isopropyl-1H-pyrazol-4-yl)-5-methylpyrimidine-2-yl)amino)phenyl) acetamide] | 0.1 to 1 µM | – | 97% | 0.01 to 0.1 µM | – | 95% | 0.01 to 0.1 µM | – | – |
| Cc1cnc(Nc2ccc(S(=O)(=O)NC3CC3)cc2)nc1-c1cnn(C(C)C)c1 [CLJ-99, N-cyclopropyl-4-((4-(1-isopropyl-1H-pyrazol-4-yl)-5-methylpyrimidine-2-yl)amino) benzenesulfonamide] | 0.1 to 1 µM | – | 100% | 0.01 to 0.1 µM | – | 97% | 0.01 to 0.1 µM | – | – |
